In patent US12116343B2, “Inhibitors of APOL1 and methods of using same” (Vertex Pharmaceuticals Incorporated, priority 2020, dated 2024):

The compounds below were run against T1, APOL1 G1 Protein (Homo sapiens, UniProt O14791, I384M/S342G) (assay: Trypanosoma brucei brucei lysis assay using APOL1 recombinant protein (AlamarBlue viability)). Settings: Trypanosoma brucei brucei lysis, recombinant APOL1, AlamarBlue; read-out: Trypanosoma Assay (IC50).
T1 sequence (O14791 28-398 S342G/I384M): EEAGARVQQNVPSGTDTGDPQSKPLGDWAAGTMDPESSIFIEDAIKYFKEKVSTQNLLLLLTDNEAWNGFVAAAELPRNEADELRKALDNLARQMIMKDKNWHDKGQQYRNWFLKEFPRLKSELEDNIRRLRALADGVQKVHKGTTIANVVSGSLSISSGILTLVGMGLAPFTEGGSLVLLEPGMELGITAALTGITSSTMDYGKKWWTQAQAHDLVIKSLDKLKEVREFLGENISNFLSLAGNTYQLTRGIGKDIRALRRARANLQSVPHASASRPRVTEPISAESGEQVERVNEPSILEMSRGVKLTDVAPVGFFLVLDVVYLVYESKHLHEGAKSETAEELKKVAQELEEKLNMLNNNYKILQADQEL
Assay type: cell-based
Description: Trypanosoma brucei brucei is a blood stream parasite to which human, gorillas and baboon are immune due to the presence of the APOL1 protein in their HDL particles. The protein is uptaken by the parasite via the TbHpHb receptor located in its flagellar pocket and is bonded by the Hpr protein contained in the HDL particles which triggers the receptor endocytosis by the parasite.
Following endocytosis, the formed vesicle containing the HDL particle matures from early to late endosome, and subsequently to lysosome. The concomitant pH change in the lumen of the vesicle triggers the insertion of the APOL1 protein into the membrane of the late endosome/lysosome and hereby triggers lysosomal membrane premeabilisation and as a further downstream event, trypanosome lysis. Trypanosoma brucei brucei is sensitive to lysis by all three APOL1 variants (G0, G1, and G2).
The Trypanosoma brucei brucei lysis assay is a lysis assay of the parasite using recombinant APOL1 protein variant followed by a fluorescent detection method of viability by the addition of AlamarBlue reagent to the assay well, a general metabolic redox indicator (AlamarBlue assay).
Briefly, the AlamarBlue active compound, the resazurin, a blue, water soluble, non-toxic and cell permeable molecule, which can be followed by absorbance, is reduced by various metabolic pathways into resorufin, a red compound which can be followed by either absorbance or fluorescence. The assay allows the calculation of the percent viability (percent of living Trypanosomes remaining in each well) at the end of a lysis relative to the untreated condition by interpolation of fluorescent values (FLU) on a standard curve with a known amount of seeded trypanosome/well.
Trypanosoma brucei brucei (ATCC, Cat. No. PRA-382) • Lister 427 VSG 221 bloodstream form.
Thaw/Expansion Media (ATCC Medium 2834 Modified HMI-9 Medium)
Assay Media (No Phenol Red/No FBS): Make on Day of Use
Hypoxanthine Stock (100×)-9 (10×)
Equipment • El-Clip Tip pipette 12 channel adjustable 2-125 μL, Cat. No. 4672070BT • ThermoFisher MultiDrop 384, Cat. No. 5840300 • Multidrop • Agilent Bravo, Cat. No. G5409A • Bravo • SpectraMax M5
Assay Ready Plates (ARPs) • ARPs comes in two formats: • […] final top concentration with a 2.5 fold dilution down. • […] final top concentration with a 3 fold dilution down. • Both have a 10 point Dose response. • 0.1% DMSO final in the Black Assay Plate. • Compounds are diluted 1000 fold in the Black Assay Plate. • Each plate is designed for 14 compounds in duplicate. • In the final Black Assay Plate:
Trypanosoma brucei brucei Culture
Step 2, Day 4 • Centrifuge at 800×g for 5 minutes at room temperature. • Resuspend in 1 mL media. • Make a 1:25 fold dilution (10 μL/240 μL media). • Count on a hemocytometer (after adding parasites). • Let sit for 1-2 minutes for the parasites to settle. • Count should be approximately 100 viable motile parasites/16 grid or approximately 25×10^6 parasites/flask. • Passage the parasites by adding 1×10^6 parasites/T75 flask in 20 mL media. • Passage the parasites by adding 2.33×10^6 parasites/T175 flask in 46.6 mL media. • For every T75 flask should make enough for approximately 1.5×384 well assay plates. • For every T175 flask should make enough for approximately 3.8×384 well assay plates.
Step 3, Day 6 • Centrifuge at 800×g for 5 minutes. • Resuspend in 3 mL assay media (No phenol red, no FBS) per 75 starting flask. • Resuspend in 7 mL assay media (No phenol red, no FBS) per 175 flask • Make a 1:25 fold dilution. • Count by hemocytometer. • Every T75 flask set up should have approximately 75×10^6 parasites/flask (verify doubling time=8.7 hrs±1 hr). • Every T175 flask set up should have approximately 175×10^6 parasites/flask (verify doubling time=8.7 hrs±1 hr). • Require 46×10^6 parasites per 384 well plate (at 120,000 parasites per well). Protocol B […]

SMILES	IC50
NC(=O)C1CCN(C(=O)[C@H]2C[C@H](c3c(-c4ccc(F)cc4)[nH]c4c(F)cc(F)cc43)C2)CC1 [Compound 133]	> 1 µM
O=C([C@H]1C[C@H](c2c(-c3ccc(F)cc3)[nH]c3c(F)cc(F)cc32)C1)N1CCC(CCO)CC1 [Compound 134]	> 1 µM
NC(=O)[C@@H]1CCN(C(=O)[C@H]2C[C@H](c3c(-c4ccc(F)cc4)[nH]c4c(F)cc(F)cc43)C2)C1 [Compound 135]	> 1 µM
O=C([C@H]1C[C@H](c2c(-c3ccc(F)cc3)[nH]c3c(F)cc(F)cc32)C1)N1CC(OCC2CCCO2)C1 (stereo partly drawn) [Compound 136]	> 1 µM
O=C([C@H]1C[C@H](c2c(-c3ccc(F)cc3)[nH]c3c(F)cc(F)cc32)C1)N1CC2(CC(O)C2)C1 [Compound 137]	> 1 µM
O=C([C@H]1C[C@H](c2c(-c3ccc(F)cc3)[nH]c3c(F)cc(F)cc32)C1)N1CC(O)C(CO)C1 (stereo partly drawn) [Compound 138]	0.25 to 1 µM
O=C1CC[C@H](NC(=O)[C@H]2C[C@H](c3c(-c4ccc(F)cc4)[nH]c4c(F)cc(F)cc43)C2)C1 [Compound 139]	0.25 to 1 µM
O=C([C@H]1C[C@H](c2c(-c3ccc(F)cc3)[nH]c3c(F)cc(F)cc32)C1)N1CC[C@H](CO)C1 [Compound 140]	> 1 µM
CC(C)[C@@H](CO)NC(=O)[C@H]1C[C@H](c2c(-c3ccc(F)cc3)[nH]c3c(F)cc(F)cc32)C1 [Compound 141]	0.25 to 1 µM
C[C@H](CO)N(C)C(=O)[C@H]1C[C@H](c2c(-c3ccc(F)cc3)[nH]c3c(F)cc(F)cc32)C1 [Compound 142]	< 0.25 µM
O=C(NCC1(O)CCC1)[C@H]1C[C@H](c2c(-c3ccc(F)cc3)[nH]c3c(F)cc(F)cc32)C1 [Compound 143]	> 1 µM
NC(=O)[C@H](CO)NC(=O)[C@H]1C[C@H](c2c(-c3ccc(F)cc3)[nH]c3c(F)cc(F)cc32)C1 [Compound 144]	0.25 to 1 µM
O=C([C@H]1C[C@H](c2c(-c3ccc(F)cc3)[nH]c3c(F)cc(F)cc32)C1)N1CCCCC1CO (stereo partly drawn) [Compound 145]	0.25 to 1 µM
O=C([C@H]1C[C@H](c2c(-c3ccc(F)cc3)[nH]c3c(F)cc(F)cc32)C1)N1CCCC[C@H]1CO [Compound 146]	0.25 to 1 µM
O=C([C@H]1C[C@H](c2c(-c3ccc(F)cc3)[nH]c3c(F)cc(F)cc32)C1)N1CCCC(CO)C1 (stereo partly drawn) [Compound 147]	> 1 µM
O=C([C@H]1C[C@H](c2c(-c3ccc(F)cc3)[nH]c3c(F)cc(F)cc32)C1)N1CCOC(CO)C1 (stereo partly drawn) [Compound 148]	> 1 µM
O=C([C@H]1C[C@H](c2c(-c3ccc(F)cc3)[nH]c3c(F)cc(F)cc32)C1)N1CCC[C@@H](O)C1 [Compound 149]	< 0.25 µM
O=C([C@H]1C[C@H](c2c(-c3ccc(F)cc3)[nH]c3c(F)cc(F)cc32)C1)N1CCCC(O)C1 (stereo partly drawn) [Compound 150]	0.25 to 1 µM

SMILES	IC50
NC(=O)[C@H]1CCCN1C(=O)[C@H]1C[C@H](c2c(-c3ccc(F)cc3)[nH]c3c(F)cc(F)cc32)C1 [Compound 153]	< 0.25 µM
NC(=O)[C@H]1CCN(C(=O)[C@H]2C[C@H](c3c(-c4ccc(F)cc4)[nH]c4c(F)cc(F)cc43)C2)C1 [Compound 154]	> 1 µM
C[C@@H](O)[C@H](CO)NC(=O)[C@H]1C[C@H](c2c(-c3ccc(F)cc3)[nH]c3c(F)cc(F)cc32)C1 [Compound 155]	0.25 to 1 µM
O=C([C@H]1C[C@H](c2c(-c3ccc(F)cc3)[nH]c3c(F)cc(F)cc32)C1)N1CCCC[C@@H]1CCO [Compound 156]	> 1 µM
O=C1CC[C@@H](NC(=O)[C@H]2C[C@H](c3c(-c4ccc(F)cc4)[nH]c4c(F)cc(F)cc43)C2)C1 [Compound 157]	> 1 µM
CN(CC(O)CO)C(=O)[C@H]1C[C@H](c2c(-c3ccc(F)cc3)[nH]c3c(F)cc(F)cc32)C1 (stereo partly drawn) [Compound 158]	0.25 to 1 µM
O=C1CCC(NC(=O)[C@H]2C[C@H](c3c(-c4ccc(F)cc4)[nH]c4c(F)cc(F)cc43)C2)C1 (stereo partly drawn) [Compound 159]	> 1 µM
C[C@@H](O)[C@@H](CO)NC(=O)[C@H]1C[C@H](c2c(-c3ccc(F)cc3)[nH]c3c(F)cc(F)cc32)C1 [Compound 160]	< 0.25 µM
O=C([C@H]1C[C@H](c2c(-c3ccc(F)cc3)[nH]c3c(F)cc(F)cc32)C1)N1CCN[C@H](CO)C1 [Compound 161]	0.25 to 1 µM
O=C1NCC[C@@H]1NC(=O)[C@H]1C[C@H](c2c(-c3ccc(F)cc3)[nH]c3c(F)cc(F)cc32)C1 [Compound 162]	0.25 to 1 µM
O=C(N[C@@H](CO)C(F)(F)F)[C@H]1C[C@H](c2c(-c3ccc(F)cc3)[nH]c3c(F)cc(F)cc32)C1 [Compound 163]	< 0.25 µM
O=C(N[C@H](CO)C(F)(F)F)[C@H]1C[C@H](c2c(-c3ccc(F)cc3)[nH]c3c(F)cc(F)cc32)C1 [Compound 164]	< 0.25 µM
O=C1C[C@H](NC(=O)[C@H]2C[C@H](c3c(-c4ccc(F)cc4)[nH]c4c(F)cc(F)cc43)C2)C(=O)N1 [Compound 165]	< 0.25 µM
O=C1C[C@@H](NC(=O)[C@H]2C[C@H](c3c(-c4ccc(F)cc4)[nH]c4c(F)cc(F)cc43)C2)C(=O)N1 [Compound 166]	< 0.25 µM
CC(O)CNC(=O)[C@H]1C[C@H](c2c(-c3ccc(F)cc3)[nH]c3c(F)cc(F)cc32)C1 (stereo partly drawn) [Compound 167]	0.25 to 1 µM
O=C(NCc1cocn1)[C@H]1C[C@H](c2c(-c3ccc(F)cc3)[nH]c3c(F)cc(F)cc32)C1 [Compound 168]	< 0.25 µM
NC(=O)[C@H]1C[C@H](c2c(-c3ccc(F)cc3)[nH]c3c(F)cc(F)cc32)C1 [Compound 169]	< 0.25 µM
O=C(NCc1cnco1)[C@H]1C[C@H](c2c(-c3ccc(F)cc3)[nH]c3c(F)cc(F)cc32)C1 [Compound 170]	< 0.25 µM
